According to ChEMBL document CHEMBL4507278 (2021):

Key:
[1] = molecular target: Serine/threonine-protein kinase PAK 4 (Homo sapiens) (UniProt O96013); conditions: Compound concentration 1000.0 nM
[2] = molecular target: RAC-gamma serine/threonine-protein kinase (Homo sapiens) (UniProt Q9Y243); conditions: Compound concentration 1000.0 nM
[3] = molecular target: RAF proto-oncogene serine/threonine-protein kinase (Homo sapiens) (UniProt P04049); conditions: Compound concentration 1000.0 nM
[4] = molecular target: Serine/threonine-protein kinase TAO3 (Homo sapiens) (UniProt Q9H2K8); conditions: Compound concentration 1000.0 nM
[5] = molecular target: Serine/threonine-protein kinase 24 (Homo sapiens) (UniProt Q9Y6E0); conditions: Compound concentration 1000.0 nM
[6] = molecular target: Mitogen-activated protein kinase 15 (Homo sapiens) (UniProt Q8TD08); conditions: Compound concentration 1000.0 nM
[7] = molecular target: Ephrin type-B receptor 2 (Homo sapiens) (UniProt P29323); conditions: Compound concentration 1000.0 nM
[8] = molecular target: D(1B) dopamine receptor (Homo sapiens) (UniProt P21918); conditions: Compound concentration 10.0 uM
[9] = molecular target: Mitogen-activated protein kinase 11 (Homo sapiens) (UniProt Q15759); conditions: Compound concentration 1000.0 nM
[10] = molecular target: Serine/threonine-protein kinase Nek4 (Homo sapiens) (UniProt P51957); conditions: Compound concentration 1000.0 nM
[11] = molecular target: 5-hydroxytryptamine receptor 1D (Homo sapiens) (UniProt P28221); conditions: Compound concentration 10.0 uM
[12] = system: Tyrosine-protein kinase ABL1 (Homo sapiens), P00519 [H396P]; conditions: Compound concentration 1000.0 nM
[13] = molecular target: Phosphatidylinositol 4,5-bisphosphate 3-kinase catalytic subunit beta isoform (Homo sapiens) (UniProt P42338); conditions: Compound concentration 1000.0 nM
[14] = molecular target: Tyrosine-protein kinase Fyn (Homo sapiens) (UniProt P06241); conditions: Compound concentration 1000.0 nM
[15] = molecular target: MAP kinase-interacting serine/threonine-protein kinase 2 (Homo sapiens) (UniProt Q9HBH9); conditions: Compound concentration 1000.0 nM
[16] = molecular target: SRSF protein kinase 1 (Homo sapiens) (UniProt Q96SB4); conditions: Compound concentration 1000.0 nM
Chain of SRSF protein kinase 1 (Homo sapiens) (Q96SB4 whole entry): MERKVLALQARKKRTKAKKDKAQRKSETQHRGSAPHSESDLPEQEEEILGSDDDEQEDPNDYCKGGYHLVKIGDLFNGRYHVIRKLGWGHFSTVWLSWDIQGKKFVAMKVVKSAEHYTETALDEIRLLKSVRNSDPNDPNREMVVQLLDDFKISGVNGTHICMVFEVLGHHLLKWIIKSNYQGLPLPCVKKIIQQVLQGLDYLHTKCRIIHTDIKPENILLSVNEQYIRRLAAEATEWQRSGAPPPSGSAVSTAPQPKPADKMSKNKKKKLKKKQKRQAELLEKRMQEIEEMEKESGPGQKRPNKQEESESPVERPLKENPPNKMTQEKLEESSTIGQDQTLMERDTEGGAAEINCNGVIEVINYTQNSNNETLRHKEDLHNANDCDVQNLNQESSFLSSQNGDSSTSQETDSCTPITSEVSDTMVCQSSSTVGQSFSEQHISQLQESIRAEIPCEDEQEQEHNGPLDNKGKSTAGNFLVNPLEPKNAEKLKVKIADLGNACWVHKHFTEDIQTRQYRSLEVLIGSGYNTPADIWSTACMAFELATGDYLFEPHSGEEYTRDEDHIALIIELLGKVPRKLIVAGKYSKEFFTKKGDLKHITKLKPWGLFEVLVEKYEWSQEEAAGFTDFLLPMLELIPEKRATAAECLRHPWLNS

[17] = molecular target: Leucine-rich repeat serine/threonine-protein kinase 2 (Homo sapiens) (UniProt Q5S007); conditions: Compound concentration 1000.0 nM
[18] = molecular target: Serine/threonine-protein kinase N2 (Homo sapiens) (UniProt Q16513); conditions: Compound concentration 1000.0 nM
[19] = molecular target: Serine/threonine-protein kinase 33 (Homo sapiens) (UniProt Q9BYT3); conditions: Compound concentration 1000.0 nM
[20] = system: Phosphatidylinositol 4,5-bisphosphate 3-kinase catalytic subunit alpha isoform (Homo sapiens), P42336 [H1047Y]; conditions: Compound concentration 1000.0 nM
[21] = molecular target: D(2) dopamine receptor (Homo sapiens) (UniProt P14416); conditions: Compound concentration 10.0 uM
Rattus norvegicus = species: Rattus norvegicus; conditions: Compound concentration 10.0 uM
[22] = molecular target: Serine/threonine-protein kinase MRCK gamma (Homo sapiens) (UniProt Q6DT37); conditions: Compound concentration 1000.0 nM
[23] = molecular target: Alpha-1A adrenergic receptor (Homo sapiens) (UniProt P35348); conditions: Compound concentration 10.0 uM
[24] = system: ALK tyrosine kinase receptor (Homo sapiens), Q9UM73 [C1156Y]; conditions: Compound concentration 1000.0 nM
[25] = molecular target: Serine/threonine-protein kinase WNK4 (Homo sapiens) (UniProt Q96J92); conditions: Compound concentration 1000.0 nM
[26] = molecular target: Mitogen-activated protein kinase 10 (Homo sapiens) (UniProt P53779); conditions: Compound concentration 1000.0 nM
[27] = molecular target: 5-hydroxytryptamine receptor 2A (Homo sapiens) (UniProt P28223); conditions: Compound concentration 10.0 uM
[28] = molecular target: Calcium/calmodulin-dependent protein kinase type 1D (Homo sapiens) (UniProt Q8IU85); conditions: Compound concentration 1000.0 nM
[29] = molecular target: Mitogen-activated protein kinase 9 (Homo sapiens) (UniProt P45984); conditions: Compound concentration 1000.0 nM
[30] = molecular target: Casein kinase I isoform alpha (Homo sapiens) (UniProt P48729); conditions: Compound concentration 1000.0 nM
Chain of Casein kinase I isoform alpha (Homo sapiens) (P48729 2-337 limits assumed): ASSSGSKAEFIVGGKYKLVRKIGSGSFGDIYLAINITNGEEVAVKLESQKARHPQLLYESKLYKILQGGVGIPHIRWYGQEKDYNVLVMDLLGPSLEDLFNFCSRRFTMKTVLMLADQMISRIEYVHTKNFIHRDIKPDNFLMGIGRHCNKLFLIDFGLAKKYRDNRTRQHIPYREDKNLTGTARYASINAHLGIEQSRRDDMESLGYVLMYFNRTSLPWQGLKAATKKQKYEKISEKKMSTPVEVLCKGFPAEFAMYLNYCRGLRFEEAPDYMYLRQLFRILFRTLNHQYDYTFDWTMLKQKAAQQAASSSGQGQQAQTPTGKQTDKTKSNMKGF

[31] = system: Epidermal growth factor receptor (Homo sapiens), P00533 [UNDEFINED MUTATION]; conditions: Compound concentration 1000.0 nM
[32] = molecular target: Casein kinase I isoform delta (Homo sapiens) (UniProt P48730); conditions: Compound concentration 1000.0 nM
[33] = molecular target: Ephrin type-A receptor 3 (Homo sapiens) (UniProt P29320); conditions: Compound concentration 1000.0 nM
[34] = molecular target: Death-associated protein kinase 1 (Homo sapiens) (UniProt P53355); conditions: Compound concentration 1000.0 nM
Chain of Death-associated protein kinase 1 (Homo sapiens) (P53355 whole entry, looked up): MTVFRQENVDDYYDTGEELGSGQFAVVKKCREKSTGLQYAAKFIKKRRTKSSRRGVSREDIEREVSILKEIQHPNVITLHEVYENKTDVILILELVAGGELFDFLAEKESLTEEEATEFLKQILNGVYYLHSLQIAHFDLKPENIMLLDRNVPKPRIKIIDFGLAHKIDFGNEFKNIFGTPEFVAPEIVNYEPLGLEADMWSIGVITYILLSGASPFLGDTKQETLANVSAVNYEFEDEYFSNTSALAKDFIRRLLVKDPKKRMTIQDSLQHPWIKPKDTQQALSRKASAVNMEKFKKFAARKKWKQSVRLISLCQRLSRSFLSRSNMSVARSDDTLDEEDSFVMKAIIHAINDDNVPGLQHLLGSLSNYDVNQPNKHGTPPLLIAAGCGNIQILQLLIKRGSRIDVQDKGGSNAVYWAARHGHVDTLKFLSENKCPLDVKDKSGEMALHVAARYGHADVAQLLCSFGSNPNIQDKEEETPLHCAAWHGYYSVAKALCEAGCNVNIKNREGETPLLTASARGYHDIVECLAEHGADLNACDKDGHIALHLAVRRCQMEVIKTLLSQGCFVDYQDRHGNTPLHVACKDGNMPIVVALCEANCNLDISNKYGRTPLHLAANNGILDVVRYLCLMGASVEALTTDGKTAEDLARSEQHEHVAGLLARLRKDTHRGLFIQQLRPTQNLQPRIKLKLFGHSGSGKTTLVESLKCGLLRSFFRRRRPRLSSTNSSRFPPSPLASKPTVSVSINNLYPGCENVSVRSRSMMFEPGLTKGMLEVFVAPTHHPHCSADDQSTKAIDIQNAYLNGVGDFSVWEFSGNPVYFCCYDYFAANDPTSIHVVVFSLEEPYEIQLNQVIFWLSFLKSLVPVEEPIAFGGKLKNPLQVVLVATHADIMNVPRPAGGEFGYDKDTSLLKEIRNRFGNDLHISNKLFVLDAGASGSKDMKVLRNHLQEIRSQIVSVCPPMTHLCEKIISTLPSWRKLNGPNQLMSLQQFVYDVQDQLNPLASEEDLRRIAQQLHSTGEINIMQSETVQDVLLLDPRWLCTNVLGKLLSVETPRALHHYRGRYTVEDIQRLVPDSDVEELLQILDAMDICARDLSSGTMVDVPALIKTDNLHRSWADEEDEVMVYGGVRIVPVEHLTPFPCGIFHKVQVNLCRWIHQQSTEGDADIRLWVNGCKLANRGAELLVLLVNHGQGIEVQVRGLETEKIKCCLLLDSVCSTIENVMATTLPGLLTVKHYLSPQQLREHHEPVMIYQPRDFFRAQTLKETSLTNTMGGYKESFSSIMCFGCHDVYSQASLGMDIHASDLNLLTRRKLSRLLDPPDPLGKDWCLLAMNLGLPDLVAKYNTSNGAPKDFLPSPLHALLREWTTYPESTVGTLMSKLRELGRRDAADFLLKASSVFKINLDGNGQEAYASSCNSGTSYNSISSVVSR

[35] = molecular target: Cyclin-G-associated kinase (Homo sapiens) (UniProt O14976); conditions: Compound concentration 1000.0 nM
Chain of Cyclin-G-associated kinase (Homo sapiens) (O14976 whole entry): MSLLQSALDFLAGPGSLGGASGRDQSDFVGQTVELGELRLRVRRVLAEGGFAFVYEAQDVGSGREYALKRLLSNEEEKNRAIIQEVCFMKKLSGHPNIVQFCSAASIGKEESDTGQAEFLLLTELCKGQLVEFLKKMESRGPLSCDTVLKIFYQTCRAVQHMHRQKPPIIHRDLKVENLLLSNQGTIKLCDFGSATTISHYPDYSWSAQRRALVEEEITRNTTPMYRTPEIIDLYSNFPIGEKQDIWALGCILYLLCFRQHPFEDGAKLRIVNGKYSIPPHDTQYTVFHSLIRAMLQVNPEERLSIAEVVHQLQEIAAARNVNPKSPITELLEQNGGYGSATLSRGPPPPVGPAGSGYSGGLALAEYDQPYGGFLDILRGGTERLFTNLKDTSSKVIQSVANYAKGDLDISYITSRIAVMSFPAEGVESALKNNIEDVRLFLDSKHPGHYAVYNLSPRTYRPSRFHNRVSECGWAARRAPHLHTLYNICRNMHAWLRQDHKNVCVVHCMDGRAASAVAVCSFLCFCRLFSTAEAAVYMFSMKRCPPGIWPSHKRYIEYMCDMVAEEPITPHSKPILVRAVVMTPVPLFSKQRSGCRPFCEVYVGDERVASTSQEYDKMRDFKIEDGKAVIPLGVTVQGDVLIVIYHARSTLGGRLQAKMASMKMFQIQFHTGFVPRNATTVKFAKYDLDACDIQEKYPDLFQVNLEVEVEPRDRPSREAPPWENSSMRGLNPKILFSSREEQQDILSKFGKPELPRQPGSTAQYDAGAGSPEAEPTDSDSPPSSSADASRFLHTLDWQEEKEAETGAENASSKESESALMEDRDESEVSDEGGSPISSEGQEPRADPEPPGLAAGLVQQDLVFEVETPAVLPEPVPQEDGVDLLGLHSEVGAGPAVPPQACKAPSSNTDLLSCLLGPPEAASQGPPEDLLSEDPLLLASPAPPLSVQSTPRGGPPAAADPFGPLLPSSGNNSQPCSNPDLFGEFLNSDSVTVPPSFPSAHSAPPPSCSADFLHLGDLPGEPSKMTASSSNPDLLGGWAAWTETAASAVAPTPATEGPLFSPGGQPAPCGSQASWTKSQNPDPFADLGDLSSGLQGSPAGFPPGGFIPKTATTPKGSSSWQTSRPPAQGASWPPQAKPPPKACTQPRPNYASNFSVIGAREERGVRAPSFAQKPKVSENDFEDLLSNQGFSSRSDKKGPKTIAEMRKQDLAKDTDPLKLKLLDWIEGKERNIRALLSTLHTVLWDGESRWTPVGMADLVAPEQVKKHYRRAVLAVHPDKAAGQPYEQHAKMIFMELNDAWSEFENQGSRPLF

[36] = molecular target: Tyrosine-protein kinase SYK (Homo sapiens) (UniProt P43405); conditions: Compound concentration 1000.0 nM
[37] = molecular target: Tyrosine-protein kinase Yes (Homo sapiens) (UniProt P07947); conditions: Compound concentration 1000.0 nM

Chain of Serine/threonine-protein kinase PAK 4 (Homo sapiens) (O96013 whole entry, looked up): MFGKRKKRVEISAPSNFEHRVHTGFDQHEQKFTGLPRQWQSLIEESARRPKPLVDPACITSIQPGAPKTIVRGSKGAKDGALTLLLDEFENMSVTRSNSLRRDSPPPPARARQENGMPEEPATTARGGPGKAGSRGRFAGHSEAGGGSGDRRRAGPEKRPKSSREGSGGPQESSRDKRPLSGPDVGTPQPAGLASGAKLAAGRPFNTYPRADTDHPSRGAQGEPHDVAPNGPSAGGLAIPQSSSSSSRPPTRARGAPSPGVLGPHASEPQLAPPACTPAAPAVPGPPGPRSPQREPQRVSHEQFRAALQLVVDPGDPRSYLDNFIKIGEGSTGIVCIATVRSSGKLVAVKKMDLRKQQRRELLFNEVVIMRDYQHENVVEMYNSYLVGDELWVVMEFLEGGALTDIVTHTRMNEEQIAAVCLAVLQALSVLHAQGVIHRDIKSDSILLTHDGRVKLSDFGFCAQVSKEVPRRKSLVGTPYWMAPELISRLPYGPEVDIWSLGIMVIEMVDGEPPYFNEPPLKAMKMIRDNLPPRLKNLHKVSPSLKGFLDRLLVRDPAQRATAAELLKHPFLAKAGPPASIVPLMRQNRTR
Chain of RAF proto-oncogene serine/threonine-protein kinase (Homo sapiens) (P04049 whole entry): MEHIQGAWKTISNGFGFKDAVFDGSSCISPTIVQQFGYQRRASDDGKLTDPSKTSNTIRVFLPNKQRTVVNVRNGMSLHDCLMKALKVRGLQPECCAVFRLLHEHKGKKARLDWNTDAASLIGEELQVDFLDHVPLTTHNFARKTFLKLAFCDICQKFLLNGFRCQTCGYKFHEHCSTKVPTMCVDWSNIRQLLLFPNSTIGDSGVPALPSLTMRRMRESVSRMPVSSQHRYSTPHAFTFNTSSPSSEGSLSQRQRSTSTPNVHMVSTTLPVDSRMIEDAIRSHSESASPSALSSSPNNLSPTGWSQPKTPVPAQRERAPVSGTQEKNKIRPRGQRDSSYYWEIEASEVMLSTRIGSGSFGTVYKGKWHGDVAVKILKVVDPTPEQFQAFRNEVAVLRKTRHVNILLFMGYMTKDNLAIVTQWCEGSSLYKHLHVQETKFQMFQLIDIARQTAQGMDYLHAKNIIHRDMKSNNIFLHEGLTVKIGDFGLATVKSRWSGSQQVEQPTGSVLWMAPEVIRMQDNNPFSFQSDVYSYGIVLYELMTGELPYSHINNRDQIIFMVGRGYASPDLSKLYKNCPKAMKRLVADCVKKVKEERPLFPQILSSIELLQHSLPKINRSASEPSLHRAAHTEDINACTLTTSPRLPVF

SMILES	residual activity [1] [%]	residual activity [2] [%]	residual activity [3] [%]	residual activity [4] [%]	residual activity [5] [%]	residual activity [6] [%]	residual activity [7] [%]	inhibition [8] [%]	residual activity [9] [%]	residual activity [10] [%]	inhibition [11] [%]	residual activity [12] [%]	residual activity [13] [%]	residual activity [14] [%]	residual activity [15] [%]	residual activity [16] [%]	residual activity [17] [%]	residual activity [18] [%]	residual activity [19] [%]	residual activity [20] [%]	further results
CS(=O)(=O)NCC[C@H](NC(=O)c1cncc2c1cnn2-c1ccc(F)cc1)c1ccnc(S(C)(=O)=O)c1 [BI 9307]	100	93	76	80	100	100	92	36	100	100	38.9	100	93	100	100	83	86	100	87	100	inhibition [21]: -5.26%; inhibition (Rattus norvegicus): -5.04%; residual activity [22]: 100%; inhibition [23]: -3.82%; residual activity [24]: 100%; residual activity [25]: 100%; residual activity [26]: 100%; inhibition [27]: 11.8%; residual activity [28]: 98%; residual activity [29]: 86%; residual activity [30]: 100%; residual activity [31]: 92%; residual activity [32]: 100%; residual activity [33]: 87%; residual activity [34]: 100%; residual activity [35]: 100%; residual activity [36]: 100%; residual activity [37]: 100%
CS(=O)(=O)c1cc(C2(NC(=O)c3cncc4c3cnn4-c3ccc(F)cc3)CC2)ccn1 [BI 639667]	100	96	100	97	82	100	100	-0.37	100	100	14.5	100	100	55	100	100	43	100	90	100	inhibition [21]: 6.62%; inhibition (Rattus norvegicus): 17.9%; residual activity [22]: 100%; inhibition [23]: -7.71%; residual activity [24]: 100%; residual activity [25]: 97%; residual activity [26]: 100%; inhibition [27]: 20.4%; residual activity [28]: 90%; residual activity [29]: 100%; residual activity [30]: 96%; residual activity [31]: 100%; residual activity [32]: 99%; residual activity [33]: 90%; residual activity [34]: 83%; residual activity [35]: 85%; residual activity [36]: 100%; residual activity [37]: 100%
